Here are results for 21 compounds from patent publication US10493060B2, “Spirocyclic compounds” (ZENO ROYALTIES & MILESTONES, LLC, priority 2015, dated 2019).

Assay [1] has as its target Activated ERK2 (Homo sapiens (Human), UniProt P28482). Briefly: Active ERK2 kinase assay (Mobility Shift Assay). The format is biochemical. As to the method:
(§1) Activated ERK1 and ERK2 activity was determined in a Mobility Shift Assay (MSA) format as follows: Compound and kinase solution were prepared with assay buffer (20 mM HEPES, 0.01% Triton X-100, 2 mM DTT, pH7.5) and mixed and incubated in for 30 mins at rt. ERK1 & ERK2 were then activated by the addition of Fl-Substrate, ATP and metal solution and incubated for 1 h at rt. After 1 h, the reaction was terminated by the addition of […] of Termination Buffer (QuickScout Screening Assist MSA; Carna Biosciences) to the well. The reaction mixture was applied to LabChip™ system (PerkinElmer), and the product and substrate peptide peaks were separated, analyzed and quantitated. The kinase reaction is evaluated by the product ratio calculated from peak heights of product (P) and substrate (S) peptides (P/(P+S)).

Assay [2] concerns the target Activated ERK1 (Homo sapiens (Human), UniProt P27361). Kind of assay: Active ERK1 kinase assay (Mobility Shift Assay). It is filed as biochemical. As to the method: as §1

Chain of Activated ERK2 (P28482 whole entry): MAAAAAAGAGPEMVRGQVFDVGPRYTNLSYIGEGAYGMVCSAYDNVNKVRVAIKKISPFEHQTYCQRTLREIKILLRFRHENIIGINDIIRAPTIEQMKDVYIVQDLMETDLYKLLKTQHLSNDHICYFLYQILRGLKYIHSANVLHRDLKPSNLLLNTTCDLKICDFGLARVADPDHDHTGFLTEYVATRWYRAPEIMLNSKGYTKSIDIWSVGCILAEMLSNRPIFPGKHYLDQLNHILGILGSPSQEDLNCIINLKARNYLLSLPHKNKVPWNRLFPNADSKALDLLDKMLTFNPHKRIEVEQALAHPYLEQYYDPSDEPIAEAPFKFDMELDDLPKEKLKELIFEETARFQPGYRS
Chain of Activated ERK1 (P27361 whole entry): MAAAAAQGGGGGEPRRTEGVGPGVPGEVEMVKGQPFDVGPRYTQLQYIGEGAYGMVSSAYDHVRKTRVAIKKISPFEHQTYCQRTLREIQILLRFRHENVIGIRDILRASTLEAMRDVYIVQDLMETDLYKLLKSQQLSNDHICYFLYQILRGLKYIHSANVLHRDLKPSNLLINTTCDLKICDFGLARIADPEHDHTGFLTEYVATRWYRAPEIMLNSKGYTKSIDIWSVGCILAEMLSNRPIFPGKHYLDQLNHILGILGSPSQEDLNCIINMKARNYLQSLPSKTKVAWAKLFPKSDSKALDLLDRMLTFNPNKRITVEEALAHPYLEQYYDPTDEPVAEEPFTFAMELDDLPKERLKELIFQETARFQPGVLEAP

For the compound `CC(C)Oc1ccc(-c2n[nH]c3ccc(N4CCC5(CCN(CC(=O)N6CCN(c7ccc(-c8ncn(C)n8)cc7)CC6)C5)C4=O)cc23)cn1` (stereo not drawn) [Example 3, 2-(3-(6-Isopropoxypyridin-3-yl)-1H-indazol-5-yl)-7-(2-(4-(4-(1-methyl-1H-1,2,4-triazol-3-yl)phenyl)piperazin-1-yl)-2-oxoethyl)-2,7-diazaspiro[4.4]nonan-1-one], the IC50 in assay [1] and in assay [2] was at most 50 nM throughout.
In the case of `CCNc1nnc(-c2ccc(C3=CCN(C(=O)CN4CC[C@]5(CCN(c6ccc7[nH]nc(-c8ccc(OC(C)C)nc8)c7c6)C5=O)C4)CC3)cc2)s1` [Example 19, (S)-7-(2-(4-(4-(5-(Ethylamino)-1,3,4-thiadiazol-2-yl)phenyl)-3,6-dihydropyridin-1(2H)-yl)-2-oxoethyl)-2-(3-(6-isopropoxypyridin-3-yl)-1H-indazol-5-yl)-2,7-diazaspiro[4.4]nonan-1-one], the IC50 in assay [1] and in assay [2] was at most 50 nM in each case.
Regarding `CC(C)Oc1ccc(-c2n[nH]c3ccc(N4CCC5(CCN(CC(=O)N6CC=C(c7ccc(-c8ncn(C)n8)cc7)CC6)C5)C4)cc23)cn1` (stereo not drawn) [Example 4, 2-(7-(3-(6-Isopropoxypyridin-3-yl)-1H-indazol-5-yl)-2,7-diazaspiro[4.4]nonan-2-yl)-1-(4-(4-(1-methyl-1H-1,2,4-triazol-3-yl)phenyl)-3,6-dihydropyridin-1(2H)-yl)ethan-1-one], the IC50 in assay [1] and in assay [2] was at least 250 nM throughout.
For `CC(C)Oc1ccc(-c2n[nH]c3ccc(N4CCC5(CCN(Cc6ccccc6)C5)C4=O)cc23)cn1` (stereo not drawn) [Example 21, 7-Benzyl-2-(3-(6-isopropoxypyridin-3-yl)-1H-indazol-5-yl)-2,7-diazaspiro[4.4]nonan-1-one], the IC50 in assay [1] and in assay [2] was at least 250 nM in each case.
With `Cc1cc(-c2n[nH]c3ccc(N4CC[C@@]5(CCN(CC(=O)N6CC=C(c7ccc(-c8ncn(C)n8)cc7)CC6)C5)C4=O)cc23)ccn1` [Example 9, (R)-7-(2-(4-(4-(1-Methyl-1H-1,2,4-triazol-3-yl)phenyl)-3,6-dihydropyridin-1(2H)-yl)-2-oxoethyl)-2-(3-(2-methylpyridin-4-yl)-1H-indazol-5-yl)-2,7-diazaspiro[4.4]nonan-1-one], the IC50 – broadly, the concentration at which inhibition is half-maximal – in assay [1] was at most 50 nM; in assay [2] it was 50 to 250 nM.
Consider `Cn1cnc(-c2ccc(C3=CCN(C(=O)CN4CC[C@]5(CCN(c6ccc7[nH]nc(C#N)c7c6)C5=O)C4)CC3)cc2)n1` [Example 51, (S)-5-(7-(2-(4-(4-(1-Methyl-1H-1,2,4-triazol-3-yl)phenyl)-3,6-dihydropyridin-1(2H)-yl)-2-oxoethyl)-1-oxo-2,7-diazaspiro[4.4]nonan-2-yl)-1H-indazole-3-carbonitrile], for which the IC50 in assay [1] is at most 50 nM.
The same measure, in the same setting: with `Cn1cc(-c2n[nH]c3ccc(N4CC[C@]5(CCN(CC(=O)N6CC=C(c7ccc(-c8ncn(C)n8)cc7)CC6)C5)C4=O)cc23)cn1` [Example 48, (S)-7-(2-(4-(4-(1-Methyl-1H-1,2,4-triazol-3-yl)phenyl)-3,6-dihydropyridin-1 (2H)-yl)-2-oxoethyl)-2-(3-(1-methyl-1H-pyrazol-4-yl)-1H-indazol-5-yl)-2,7-diazaspiro[4.4]nonan-1-one] the figure was at most 50 nM; with `COCCn1cnc(-c2ccc(C3=CCN(C(=O)CN4CC[C@]5(CCN(c6ccc7[nH]nc(-c8ccc(OC(C)C)nc8)c7c6)C5=O)C4)CC3)cc2)n1` [Example 49, (S)-2-(3-(6-Isopropoxypyridin-3-yl)-1H-indazol-5-yl)-7-(2-(4-(4-(1-(2-methoxyethyl)-1H-1,2,4-triazol-3-yl)phenyl)-3,6-dihydropyridin-1(2H)-yl)-2-oxoethyl)-2,7-diazaspiro[4.4]nonan-1-one], at most 50 nM; with `Cn1cnc(-c2ccc(C3=CCN(C(=O)CN4CC[C@]5(CCN(c6ccc7[nH]nc(C(F)F)c7c6)C5=O)C4)CC3)cc2)n1` [Example 52, (S)-2-(3-(Difluoromethyl)-1H-indazol-5-yl)-7-(2-(4-(4-(1-methyl-1H-1,2,4-triazol-3-yl)phenyl)-3,6-dihydropyridin-1(2H)-yl)-2-oxoethyl)-2,7-diazaspiro[4.4]nonan-1-one], at most 50 nM.
As to `Cn1cnc(-c2ccc(C3=CCN(C(=O)CN4CC[C@]5(CCN(c6ccc7[nH]nc(-c8ccc(S(C)(=O)=O)cc8)c7c6)C5=O)C4)CC3)cc2)n1` [Example 58, (S)-7-(2-(4-(4-(1-Methyl-1H-1,2,4-triazol-3-yl)phenyl)-3,6-dihydropyridin-1(2H)-yl)-2-oxoethyl)-2-(3-(4-(methylsulfonyl)phenyl)-1H-indazol-5-yl)-2,7-diazaspiro[4.4]nonan-1-one], in assay [1], the IC50 was at most 50 nM.
On to `CC(C)Oc1ccc(-c2n[nH]c3ccc(N4CCCC5(CCN(CC(=O)N6CC=C(c7ccc(-c8ncn(C)n8)cc7)CC6)C5)C4=O)cc23)cn1` (stereo not drawn) [Example 5, 7-(3-(6-Isopropoxypyridin-3-yl)-1H-indazol-5-yl)-2-(2-(4-(4-(1-methyl-1H-1,2,4-triazol-3-yl)phenyl)-3,6-dihydropyridin-1 (2H)-yl)-2-oxoethyl)-2,7-diazaspiro[4.5]decan-6-one], for which the IC50 in assay [1] is 50 to 250 nM; in assay [2], at least 250 nM.
On to `CCn1cnc(-c2ccc(C3=CCN(C(=O)CN4CC[C@]5(CCN(c6ccc7[nH]nc(-c8ccc(OC(C)C)nc8)c7c6)C5=O)C4)CC3)cc2)n1` [Example 46, (S)-7-(2-(4-(4-(1-Ethyl-1H-1,2,4-triazol-3-yl)phenyl)-3,6-dihydropyridin-1(2H)-yl)-2-oxoethyl)-2-(3-(6-isopropoxypyridin-3-yl)-1H-indazol-5-yl)-2,7-diazaspiro[4.4]nonan-1-one], for which the IC50 in assay [1] is at most 50 nM.
Still for that read-out and setting: with `Cc1ccc(-c2n[nH]c3ccc(N4CC[C@]5(CCN(CC(=O)N6CC=C(c7ccc(-c8ncn(C)n8)cc7)CC6)C5)C4=O)cc23)cn1` [Example 57, (S)-7-(2-(4-(4-(1-Methyl-1H-1,2,4-triazol-3-yl)phenyl)-3,6-dihydropyridin-1(2H)-yl)-2-oxoethyl)-2-(3-(6-methylpyridin-3-yl)-1H-indazol-5-yl)-2,7-diazaspiro[4.4]nonan-1-one] the figure was at most 50 nM; with `CC(C)Oc1ccc(-c2n[nH]c3ccc(N4CC[C@]5(CCN(CC(=O)N6CC=C(c7ccc(-c8ncn(C)n8)c(F)c7)CC6)C5)C4=O)cc23)cn1` [Example 56, (S)-7-(2-(4-(3-Fluoro-4-(1-methyl-1H-1,2,4-triazol-3-yl)phenyl)-3,6-dihydropyridin-1(2H)-yl)-2-oxoethyl)-2-(3-(6-isopropoxypyridin-3-yl)-1H-indazol-5-yl)-2,7-diazaspiro[4.4]nonan-1-one], at most 50 nM.
`CC(C)Oc1ccc(-c2n[nH]c3ccc(N4CC[C@]5(CCN(CC(=O)N6CC=C(c7ccc(-c8ncn(C)n8)cc7F)CC6)C5)C4=O)cc23)cn1` [Example 55, (S)-7-(2-(4-(2-Fluoro-4-(1-methyl-1H-1,2,4-triazol-3-yl)phenyl)-3,6-dihydropyridin-1(2H)-yl)-2-oxoethyl)-2-(3-(6-isopropoxypyridin-3-yl)-1H-indazol-5-yl)-2,7-diazaspiro[4.4]nonan-1-one]: the IC50 in assay [1] is at most 50 nM.
Still for that read-out and setting: with `CCNc1n[nH]c2ccc(N3CC[C@]4(CCN(CC(=O)N5CC=C(c6ccc(-c7ncn(C)n7)cc6)CC5)C4)C3=O)cc12` [Example 53, (S)-2-(3-(Ethylamino)-1H-indazol-5-yl)-7-(2-(4-(4-(1-methyl-1H-1,2,4-triazol-3-yl)phenyl)-3,6-dihydropyridin-1(2H)-yl)-2-oxoethyl)-2,7-diazaspiro[4.4]nonan-1-one] the figure was 50 to 250 nM; with `CC(C)Oc1ccc(-c2n[nH]c3ccc(N4CC[C@]5(CCN(CC(=O)N6CC=C(c7ccc(-c8ncn(C9CC9)n8)cc7)CC6)C5)C4=O)cc23)cn1` [Example 50, (S)-7-(2-(4-(4-(1-Cyclopropyl-1H-1,2,4-triazol-3-yl)phenyl)-3,6-dihydropyridin-1(2H)-yl)-2-oxoethyl)-2-(3-(6-isopropoxypyridin-3-yl)-1H-indazol-5-yl)-2,7-diazaspiro[4.4]nonan-1-one], at most 50 nM; with `Cc1noc(-c2ccc(C3=CCN(C(=O)CN4CC[C@]5(CCN(c6ccc7[nH]nc(-c8ccc(OC(C)C)nc8)c7c6)C5=O)C4)CC3)cc2)n1` [Example 54, (S)-2-(3-(6-Isopropoxypyridin-3-yl)-1H-indazol-5-yl)-7-(2-(4-(4-(3-methyl-1,2,4-oxadiazol-5-yl)phenyl)-3,6-dihydropyridin-1(2H)-yl)-2-oxoethyl)-2,7-diazaspiro[4.4]nonan-1-one], at most 50 nM.
The same measure, in the same setting: with `Cn1cnc(-c2ccc(N3CCN(C(=O)CN4CC[C@]5(CCN(c6ccc7[nH]nc(C8CC8)c7c6)C5=O)C4)CC3)cc2)n1` [Example 44, (S)-2-(3-Cyclopropyl-1H-indazol-5-yl)-7-(2-(4-(4-(1-methyl-1H-1,2,4-triazol-3-yl)phenyl)piperazin-1-yl)-2-oxoethyl)-2,7-diazaspiro[4.4]nonan-1-one] the figure was 50 to 250 nM; with `Cn1cnc(-c2ccc(C3=CCN(C(=O)CN4CC[C@]5(CCN(c6ccc7[nH]nc(C8CC8)c7c6)C5=O)C4)CC3)cc2)n1` [Example 45, (S)-2-(3-Cyclopropyl-1H-indazol-5-yl)-7-(2-(4-(4-(1-methyl-1H-1,2,4-triazol-3-yl)phenyl)-3,6-dihydropyridin-1(2H)-yl)-2-oxoethyl)-2,7-diazaspiro[4.4]nonan-1-one], at most 50 nM.
In the case of `CC(C)Oc1ccc(-c2n[nH]c3ccc(N4CC[C@]5(CCN(CC(=O)N6CC=C(c7ccc(-c8ncn(CCO)n8)cc7)CC6)C5)C4=O)cc23)cn1` [Example 47, (S)-7-(2-(4-(4-(1-(2-Hydroxyethyl)-1H-1,2,4-triazol-3-yl)phenyl)-3,6-dihydropyridin-1(2H)-yl)-2-oxoethyl)-2-(3-(6-isopropoxypyridin-3-yl)-1H-indazol-5-yl)-2,7-diazaspiro[4.4]nonan-1-one], the half-inhibitory concentration (IC50) in assay [1] was at most 50 nM.
